# Reference: patent US6455075B1, “Method for control of insects on plants and plant tissue” (priority 1996, dated 2002)
# Key:
# [1] = tested on: Botrytis cinerea; conditions: 0.05% Hydrogen Peroxide mist during entire propagation; one mature leaf from each of 10 cuttings, averaged
# Experimental: In this study 500 zonal geranium cuttings were treated with a mist during the entire course of their propagation. One mature leaf from each of 10 terminal stem cuttings following treatment were sampled and the data was averaged.
# [2] = tested on: Roses; conditions: after six weeks of observation
# Experimental: (§1) To insure objectivity, the greenhouses selected were not all commonly owned and many varieties of roses were included in the testing. […] The effectiveness of the spray was measured by microbial culture of the surfaces of the greenhouse and the leaf surfaces of the treated and untreated plants. […] It is well known that these fungi are airborne.
# [3] = tested on: fungus gnats; conditions: greenhouse treatment; probably due to removal of food source
# Experimental: as §1
# [4] = tested on: mealy bug, white fly, aphids, spider mites, and thrip
# Experimental: as §1
# [5] = tested on: total mold count, including Botrytis and those molds causing Powdery Mildew
# Experimental: as §1
# [6] = tested on: Botrytis and Black Spot Mold; conditions: flowers wetted with dilute solution before wrapping
# Experimental: In the cut flower industry, the moist flowers are wrapped in plastic prior to placement in the shipping boxes for transit. Ice is added to the boxes in many cases to help keep the flowers fresh during transit. This closed, moist environment is very conducive to Botrytis and Black Spot Mold.
# [7] = tested on: THRIPS
# Experimental: (§2) Long and 25 ft. Wide, was filled with various species of household plants, of which most had infestations of some type of insect pest. (Table 2) All other treatments were stopped two weeks prior to treatment with the solution of the present invention. Yellow sticky cards were placed throughout the greenhouse for three days prior to treatment and then were counted for the various species of insects present. The greenhouse was then treated with 12 gallons of a 1:50 dilution of the solution of the present invention using a Dram™ hydraulic sprayer. The house was sprayed on three day intervals for a period of three weeks. Sticky cards were placed in selected areas through out the greenhouse during the three week period.
# [8] = tested on: insect populations
# Experimental: as §2
# [9] = tested on: various species of household plants; conditions: throughout the three week treatment period, most plants in bloom
# Experimental: as §2
# [10] = tested on: root rot and other infectious pathogens; conditions: cuttings dipped in 0.5% hydrogen peroxide, dilute solution in misting system
# [11] = tested on: black mold growing on the excrement of the aphids; conditions: leaves of New Guinea Impatiens
# [12] = tested on: plant pathogens; conditions: dilute solution
# [13] = tested on: living plants; conditions: dilute solution
smiles,measurement,setting,value
OO [hydrogen peroxide],MICRO-ORGANISMS/LEAF,[1],38
same,adverse effects upon the plants,[2],No adverse effects
same,effect on fungus gnats,[3],eliminated
same,effect upon insect pests present in the greenhouse,[4]; field trials,lethal effect
same,effect on larval stages of insect pests,[4]; greenhouse treatment of the preceding example,destruction of the larval stages
same,total mold count,[5]; 1 % solution sprayed at least four times,killed or seriously reduced the total mold count
same,treated plants and surfaces free of total fungi (microbial culture),[5]; after the first application of 1 % hydrogen peroxide,~100%
same,recontamination by fungi (microbial culture),[5]; daily applications of 500 PPM over several weeks,no recontamination by fungi occurred
same,appearance of detrimental fungi,[6],prevented and or delayed the appearance of the detrimental fungi
same,reduction of Thrips,"[7]; 10 days and post 5 treatments, seven day card exposure",greatly reduced
same,average Thrips present per card,"[7]; after subsequent treatments, 72 hour exposure time",7-10
same,reduction of insect populations,[8]; 10 days and post 5 treatments,marked reduction of insect populations
same,reduction in insect populations,"[8]; after one treatment, 72 hr card exposure",did not indicate any significant reduction
same,phytotoxicity or other detrimental effect to the plants,[9],no evidence of phytotoxicity
same,cutting loss,[10],virtually eliminated cutting loss
same,effect on black mold,[11],quickly neutralized the mold
same,plant pathogens present on the surfaces,[12],either totally eradicated or substantially reduced
same,adverse effects on the plants,[13],no adverse affects
